Structures can show the parent of a compound that is named as a salt. Where two headings read alike, the source gives them in different places.
Assays:
[1] = low solubility-low permeability; cited from earlier work
[2] = physchem; conditions: 25 °C, thermodynamic from solid
Experimental: (§1) Analysis of the solid dispersions and the measure of the solubility in simulated gastrointestinal fluids were performed by HPLC with the instrument and conditions reported below.
(§2) Stirring was stopped and any undissolved solid was let to decant. The supernatant was filtered through a hydrophilic 0.2 μm PTFA filter and analyzed for the content of ursolic acid.
(§3) The same procedure as Test 1 was followed, using 100 mg of ursolic acid instead of the dispersion of example 1.
(§4) The same procedure as Test 1 was followed, using 100 mg ursolic acid potassium salt instead of the dispersion of example 1.

[3] = Dissolution test: solubility in simulated gastrointestinal fluids, ursolic acid in the supernatant by HPLC; conditions: FaSSGF pH = 1.6; stirred 2 hours at 25° C., supernatant filtered 0.2 μm
Experimental: as §1, §2, §3, §4

Ursolic acid in solution (pH 1.6)	Ursolic acid in solution (pH 5) [mg/mL]	Ursolic acid in solution (pH 6.5) [mg/mL]	solubility thermodynamic at 2 h ([2]; FaSSIF (simulated gastrointestinal fluid), pH 6.5, fassif) [µg/mL]	solubility thermodynamic at 2 h ([2]; FeSSIF (simulated gastrointestinal fluid), pH 5, fessif) [µg/mL]	Ursolic acid in solution [3]	Compound	class according to the biopharmaceutical classification system (BCS) [1]
<LOD*	0.083	0.032				3β-hydroxy-urs-12-en-28-oic acid [ursolic acid]	class IV
			154	318	<LOD*	C[C@H]1[C@H](C)CC[C@]2(C(=O)O)CC[C@]3(C)C(=CC[C@@H]4[C@@]5(C)CC[C@H](O)C(C)(C)[C@@H]5CC[C@]43C)[C@H]12 [ursolic acid potassium salt]	

Reference: patent publication US12605347B2, “Solid dispersion of ursolic acid and potassium salt” (Indena S.P.A., priority 2019, dated 2026)
